Experimental findings from patent US20250302815A1, “PROTEIN TYROSINE PHOSPHATASE TARGETING LIGANDS” (CALICO LIFE SCIENCES LLC, priority 2021, published 2025) are described below.

Test [1] deals with T1, PTPN2 (B16F10.4 cells) (Mus musculus, UniProt Q06180).
T1 construct: HiBiT; host or cells: B16F10.4
T1 sequence (Q06180 1-406): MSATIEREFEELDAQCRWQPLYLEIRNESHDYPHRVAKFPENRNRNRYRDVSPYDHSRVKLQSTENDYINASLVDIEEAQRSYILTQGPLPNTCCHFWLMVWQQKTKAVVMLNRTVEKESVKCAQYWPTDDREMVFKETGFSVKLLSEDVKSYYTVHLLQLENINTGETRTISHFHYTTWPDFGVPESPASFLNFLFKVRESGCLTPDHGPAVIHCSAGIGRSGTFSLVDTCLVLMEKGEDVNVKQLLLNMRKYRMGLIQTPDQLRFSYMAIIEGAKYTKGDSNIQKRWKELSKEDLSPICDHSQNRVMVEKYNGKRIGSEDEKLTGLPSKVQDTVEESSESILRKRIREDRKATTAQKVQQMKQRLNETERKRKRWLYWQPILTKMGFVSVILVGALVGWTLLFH
The test is described as follows: HiBiT Degradation B16F10.4 PTPN2. In kind it is cell-based. Particulars: 24.0 hours. On the technique in general: The HiBiT peptide binds its large partner to form an active luciferase.

Test [2] concerns the target T2, PTPN2 (HiBIT-PTPN2 in 293T.109 cells) (Homo sapiens, UniProt P17706).
T2 construct: expressed in transfected cells; host or cells: 293T.109 (293T WT from ATCC)
T2 sequence (P17706 1-415): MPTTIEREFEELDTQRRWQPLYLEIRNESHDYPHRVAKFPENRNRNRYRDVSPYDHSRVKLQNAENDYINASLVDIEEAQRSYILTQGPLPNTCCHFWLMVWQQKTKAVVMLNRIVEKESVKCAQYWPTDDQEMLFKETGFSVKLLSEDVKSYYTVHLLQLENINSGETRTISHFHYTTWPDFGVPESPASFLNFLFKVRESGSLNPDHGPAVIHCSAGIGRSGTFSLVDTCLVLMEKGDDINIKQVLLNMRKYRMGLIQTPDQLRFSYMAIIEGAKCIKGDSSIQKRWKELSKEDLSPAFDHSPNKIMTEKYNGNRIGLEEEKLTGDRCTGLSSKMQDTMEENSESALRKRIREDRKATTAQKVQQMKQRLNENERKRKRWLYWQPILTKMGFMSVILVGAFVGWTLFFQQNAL
The test is described as follows: HiBiT Degradation 293T.109 PTPN2 (Nano-Glo HiBiT Lytic Assay). Particulars: 24.0 hours. It is filed as cell-based. Put shortly: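 293T.109 cells with ectopic N-terminal HiBiT-tagged PTPN2 (5000/well) exposed to compounds for 24 h at 37 °C, 5% CO2; 11-point half-log titration from 10 μM top, duplicates. Remaining HiBiT-PTPN2 read as luminescence with Nano-Glo HiBiT lytic reagent, normalised to untreated cells (0%) and reagent-free wells.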

Broadly, the DC50 is the midpoint of the concentration-degradation curve. A low value points to a more potent degrader.

Bounds are passed on as bounds.

Consider `CC1(C)C[C@@H](Nc2cccc(-c3sc(C(=O)O)c(OCC(=O)O)c3Cl)c2)CCN1S(=O)(=O)Cc1cccc(NC(=O)N2CCC(c3cnc4c(c3)c3ccccc3n4C3CCC(=O)NC3=O)CC2)c1` (stereo partly drawn) [Example 218, 3-(carboxymethoxy)-4-chloro-5-[3-[[(4S)-1-[[3-[[4-[9-(2,6-dioxo-3-piperidyl)pyrido[2,3-b]indol-3-yl]piperidine-1-carbonyl]amino]phenyl]methylsulfonyl]-2,2-dimethyl-4-piperidyl]amino]phenyl]thiophene-2-carboxylic acid], for which the half-maximal degradation concentration (DC50) in test [1] and in test [2] was 200 to 1000 nM each time.

`CC(C)(c1cccc(NC(=O)CCCCCCNC(=O)CNc2cccc3c2CN(C2CCC(=O)NC2=O)C3=O)c1)S(=O)(=O)N1CCC(Nc2cccc(-c3sc(C(=O)O)c(OCC(=O)O)c3Cl)c2)CC1` (centres unmarked) [Example 40, 3-(carboxymethoxy)-4-chloro-5-[3-[[1-[1-[3-[7-[[2-[[2-(2,6-dioxo-3-piperidyl)-1-oxo-isoindolin-4-yl]amino]acetyl]amino]heptanoylamino]phenyl]-1-methyl-ethyl]sulfonyl-4-piperidyl]amino]phenyl]thiophene-2-carboxylic acid]: the 50% degradation concentration (DC50) in test [1] is at least 1000 nM; in test [2], 200 to 1000 nM.

Regarding `Cn1c(=O)n(C2CCC(=O)NC2=O)c2ccc(N3CCC(OC(=O)Nc4cccc(CS(=O)(=O)N5CC[C@H](Nc6cccc(-c7sc(C(=O)O)c(OCC(=O)O)c7Cl)c6)CC5(C)C)c4)CC3)cc21` (stereo partly drawn) [Example 117, 3-(carboxymethoxy)-4-chloro-5-[3-[[(4S)-1-[[3-[[1-[1-(2,6-dioxo-3-piperidyl)-3-methyl-2-oxo-benzimidazol-5-yl]-4-piperidyl]oxycarbonylamino]phenyl]methylsulfonyl]-2,2-dimethyl-4-piperidyl]amino]phenyl]thiophene-2-carboxylic acid], the DC50 in test [1] and in test [2] was 50 to 200 nM throughout.

With `O=C(O)COc1c(C(=O)O)sc(-c2cccc(NC3CCN(S(=O)(=O)Cc4cccc(NC(=O)N5CCC(c6ccc7c8c(cccc68)C(=O)N7C6CCC(=O)NC6=O)CC5)c4)CC3)c2)c1Cl` (centres unmarked) [Example 173, 3-(carboxymethoxy)-4-chloro-5-[3-[[1-[[3-[[4-[1-(2,6-dioxo-3-piperidyl)-2-oxo-benzo[cd]indol-6-yl]piperidine-1-carbonyl]amino]phenyl]methylsulfonyl]-4-piperidyl]amino]phenyl]thiophene-2-carboxylic acid], the DC50 is below 50 nM in test [1] and 50 to 200 nM in test [2].

`CC1(C)C[C@@H](Nc2cccc(-c3sc(C(=O)O)c(OCC(=O)O)c3Cl)c2)CCN1S(=O)(=O)Cc1ccc(F)c(NC(=O)C2CN(C(=O)CNc3cccc4c3CN(C3CCC(=O)NC3=O)C4=O)C2)c1` (some centres unmarked) [Example 109]: the figures for the DC50 in test [1] and in test [2] were 200 to 1000 nM and below 50 nM, respectively.

On to `Cn1c(=O)n(C2CCC(=O)NC2=O)c2ccc(N3CCC(N4CCN(c5cccc(CS(=O)(=O)N6CC[C@H](Nc7cccc(-c8sc(C(=O)O)c(OCC(=O)O)c8Cl)c7)CC6(C)C)c5)C4=O)CC3)cc21` (stereo partly drawn) [Example 198, 3-(carboxymethoxy)-4-chloro-5-[3-[[(4S)-1-[3-[3-[[1-[1-(2,6-dioxo-3-piperidyl)-3-methyl-2-oxo-benzimidazol-5-yl]-4-piperidyl]-2-oxo-imidazolidin-1-yl]phenyl]methylsulfonyl]-2,2-dimethyl-4-piperidyl]amino]phenyl]thiophene-2-carboxylic acid], for which the DC50 in test [1] and in test [2] was 50 to 200 nM in each case.

`CC1(C)C[C@@H](Nc2cccc(-c3sc(C(=O)O)c(OCC(=O)O)c3Cl)c2)CCN1S(=O)(=O)Cc1cccc(NC(=O)N2CCC[C@@H](c3ccc4c5c(cccc35)N(C3CCC(=O)NC3=O)C4=O)CC2)c1` (stereo partly drawn) [Example 224, 3-(carboxymethoxy)-4-chloro-5-(3-(((4S)-1-((3-((4R)-4-(1-(2,6-dioxopiperidin-3-yl)-2-oxo-1,2-dihydrobenzo[cd]indol-5-yl)azepane-1-carboxamido)benzyl)sulfonyl)-2,2-dimethylpiperidin-4-yl)amino)phenyl)thiophene-2-carboxylic acid]: the DC50 in test [1] and in test [2] was 50 to 200 nM each time.

As for `Cn1nc(C2CCC(=O)NC2=O)c2ccc(C3CCN(C(=O)Nc4cccc(CS(=O)(=O)N5CC[C@H](Nc6cccc(-c7sc(C(=O)O)c(OCC(=O)O)c7Cl)c6)CC5(C)C)c4)CC3)cc21` (stereo partly drawn) [Example 143, 3-(carboxymethoxy)-4-chloro-5-[3-[[(4S)-1-[[3-[[4-[3-(2,6-dioxo-3-piperidyl)-1-methyl-indazol-6-yl]piperidine-1-carbonyl]amino]phenyl]methylsulfonyl]-2,2-dimethyl-4-piperidyl]amino]phenyl]thiophene-2-carboxylic acid], the 50% degradation concentration (DC50) in test [1] and in test [2] was 50 to 200 nM in each case.

On to `CC1(C)C[C@@H](Nc2cccc(-c3sc(C(=O)O)c(OCC(=O)O)c3Cl)c2)CCN1S(=O)(=O)Cc1cc(NC(=O)N2CCC(c3ccc4c5c(cccc35)C(=O)N4C3CCC(=O)NC3=O)CC2)ccc1F` (stereo partly drawn) [Example 161, 3-(carboxymethoxy)-4-chloro-5-[3-[[(4S)-1-[[5-[[4-[1-(2,6-dioxo-3-piperidyl)-2-oxo-benzo[cd]indol-6-yl]piperidine-1-carbonyl]amino]-2-fluoro-phenyl]methylsulfonyl]-2,2-dimethyl-4-piperidyl]amino]phenyl]thiophene-2-carboxylic acid], for which the results for the half-maximal degradation concentration (DC50) in test [1] and in test [2] were below 50 nM and 50 to 200 nM, respectively.

`O=C(O)COc1c(C(=O)O)sc(-c2cccc(NC3CCN(S(=O)(=O)Cc4cccc(NC(=O)CCOCCOCCCc5cccc6c5C(=O)N(C5CCC(=O)NC5=O)C6=O)c4)CC3)c2)c1Cl` (centres unmarked) [Example 20, 3-(carboxymethoxy)-4-chloro-5-[3-[[1-[[3-[3-[2-[3-[2-(2,6-dioxo-3-piperidyl)-1,3-dioxo-isoindolin-4-yl]propoxy]ethoxy]propanoylamino]phenyl]methylsulfonyl]-4-piperidyl]amino]phenyl]thiophene-2-carboxylic acid]: the DC50 in test [1] is at least 1000 nM; in test [2], 200 to 1000 nM.

As to `CC1(C)C[C@@H](Nc2cccc(-c3sc(C(=O)O)c(OCC(=O)O)c3Cl)c2)CCN1S(=O)(=O)Cc1cccc(NC(=O)C2CN(C(=O)CNc3cccc4c3CN([C@@H]3CCC(=O)NC3=O)C4=O)C2)c1` (single isomer, unassigned) [Example 44a], the half-maximal degradation concentration (DC50) in test [1] is 200 to 1000 nM; in test [2], below 50 nM.

Take `Cn1c(=O)n(C2CCC(=O)NC2=O)c2ccc(C3CCN(C(=O)Nc4cccc(CS(=O)(=O)N5CCC(Nc6cccc(-c7sc(C(=O)O)c(OCC(=O)O)c7Cl)c6)CC5(C)C)c4F)CC3)cc21` (centres unmarked) [Example 115, 3-(carboxymethoxy)-4-chloro-5-[3-[[1-[[3-[[4-[1-(2,6-dioxo-3-piperidyl)-3-methyl-2-oxo-benzimidazol-5-yl]piperidine-1-carbonyl]amino]-2-fluoro-phenyl]methylsulfonyl]-2,2-dimethyl-4-piperidyl]amino]phenyl]thiophene-2-carboxylic acid]: the half-maximal degradation concentration (DC50) in test [1] is 200 to 1000 nM; in test [2], 50 to 200 nM.

Turning to `Cn1c(=O)n(C2CCC(=O)NC2=O)c2ccc([C@@H]3CCN(C(=O)Nc4cccc(CS(=O)(=O)N5CC[C@H](Nc6cccc(-c7sc(C(=O)O)c(OCC(=O)O)c7Cl)c6)CC5(C)C)c4)C[C@@H]3F)cc21` (stereo in doubt) [Example 172], the half-maximal degradation concentration (DC50) in test [1] and in test [2] was below 50 nM each time.
